From the supplement of paper PMC10307832

Experiments:
Test in all cases: relative viability (nuclei count vs DMSO), 5 days (fraction); higher = more cells survive
[1] = compound: CC1=C(CC(=O)O)c2cc(F)ccc2/C1=C\c1ccc([S+](C)[O-])cc1 [Sulindac]
Outline: (§1)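 A plate was accepted only when its control CV was below 25% and the cells had doubled at least once. Viability is defined from nuclear counts as treated wells divided by vehicle wells, with the median taken across plates. That median covers lung cancer cell lines grown in 1536-well plates, dosed by pinning at five √10-spaced library-drug concentrations, and counted in MetaXpress from 4× Hoechst images after 5 days.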

[2] = compound: CN[C@@H]1C[C@H]2O[C@@](C)([C@@H]1OC)n1c3ccccc3c3c4c(c5c6ccccc6n2c5c31)C(=O)NC4 [Staurosporine]
Outline: as §1

[3] = compound: O=c1[nH]cc(F)c(=O)[nH]1 [5-Fluorouracil]
Outline: as §1

Cell Line	relative viability ([1]; 0.08 µM)	relative viability ([1]; 0.253 µM)	relative viability ([1]; 0.8 µM)	relative viability ([1]; 2.53 µM)	relative viability ([1]; 8 µM)	relative viability ([2]; 0.005 µM)	relative viability ([2]; 0.01581 µM)	relative viability ([2]; 0.05 µM)	relative viability ([2]; 0.1581 µM)	relative viability ([2]; 0.5 µM)	relative viability ([3]; 0.02 µM)	relative viability ([3]; 0.2 µM)	relative viability ([3]; 0.6325 µM)	relative viability ([3]; 2 µM)
COR-L 105	1.03	0.894	0.891	0.91	1.25	0.636	0.295	0.357	0.274	0.193	0.896	0.927	0.819	0.5
NCI-H2170	1.13	1.03	0.884	1.06	0.991	1.07	–	0.766	0.384	0.161	1.02	0.88	0.529	0.464
A549	1.13	1.04	0.754	1.05	1.17	0.716	0.377	0.256	0.0723	0.0395	1.08	0.854	0.338	0.136
NCI-H460	1.29	1.06	0.906	0.976	1.06	0.963	0.762	0.824	0.0553	0.0329	0.99	0.72	0.165	0.0713
NCI-H1993	0.923	0.867	0.82	0.83	0.953	1.02	0.537	0.57	0.458	0.329	1.01	0.665	0.672	0.749
Calu-6	1.11	1.03	0.835	1.04	1.22	0.912	0.553	0.41	0.126	0.0704	1.07	1.04	0.872	0.508
SW 900	0.644	0.939	–	0.601	0.928	0.624	0.368	0.297	0.19	0.102	0.693	0.883	0.859	0.476
NCI-H1623	0.896	0.963	0.936	0.961	1	1.14	1.12	1.08	0.932	0.519	0.581	0.355	0.283	0.267
NCI-H322M	0.951	0.921	0.869	0.903	0.989	1.13	0.491	0.58	0.387	0.344	0.954	0.923	0.791	0.651
NCI-H2405	1.05	1.09	0.958	0.944	1.16	–	0.209	0.158	0.13	0.118	1.01	1.17	0.956	0.75
HCC-44	0.986	1.01	1.02	0.935	1.04	1.01	0.384	0.404	0.228	0.14	1.05	0.941	0.55	0.349
HCC-78	1.14	0.958	0.759	0.913	0.961	0.88	0.666	0.586	0.363	0.353	0.896	1.13	0.603	0.404
